Measurements from US4167580A, “Compositions and method of use to treat arthritic disease with m-fluorobenzimidoylacetonitrile” (American Cyanamid Company, priority 1978, dated 1979).

How the values were obtained:
[1] = tested on: Body Temperature of Pyretic Rats; test: Body temperature in yeast induced pyrexia; format: in vivo, Royal Hart, Wistar strain rats; conditions: 250 mg./kg. by gavage 17 hours after yeast; measured 19 hours post challenge
Protocol: The effect of benzimidoylacetonitrile on body temperature in yeast induced pyrexia was determined by the following procedure. Groups of three Royal Hart, Wistar strain rats weighing 80±5 grams were injected subcutaneously in the nape of the neck with 0.6 ml. of a 40% suspension of dried brewers yeast in distilled water. […] At 19 hours post challenge the rectal temperature of each rat was measured with an electric thermometer. Each dose response experiment was replicated one or more times.

[2] = tested on: Adjuvant Arthritis in Rats; test: Adjuvant induced arthritis in rats (chronic inflammation with joint destruction); format: in vivo, Royal Hart, Wistar strain rats; conditions: once daily days 0-13
Description: Adjuvant induced experimental polyarthritis is a specific systemic disease of the rat which shares interesting similarities with rheumatoid arthritis. Specifically, the histology of the two diseases bears a remarkable resemblance as shown by C. M. Pearson et al., Am. J. Pathol. 42, 73 (1963). E. M. Glenn, Am. J. Vet. Res. 27 (116), 339 (1966) has classified adjuvant induced polyarthritis as a crippling and permanent deformity resulting from diffuse connective tissue involvement around certain susceptible joints in the rat. Zahiri et al., Can. Med. Ass. J. 101, 269 (1969) have shown that the fusiform swelling of the distal joints is associated with edema, congestion and synovitis including pannus formation, all of which precede the ultimate destruction of bone and cartilage. Furthermore, Zahiri et al. indicate that the cartilage destruction in the joint is due to an invasive pannus which originates in the marginal synovium and extends across the articular surface to erode it. […] See S. Wong et al., J. Pharm. & Exptl. Ther. 185, 127 (1973) and G. R. Bobalick et al., Agents & Actions 4, 364 (1974). In a similar manner, inhibition of the progress of arthritis in paws of rats treated with the compounds of this invention also lessens associated joint deterioration.
Groups of three Royal Hart, Wistar strain rats weighing 200±10 grams each were injected intradermally in the right hind paw with Freund's adjuvant (dried human tubercle bacilli in a mineral oil vehicle) at a dose of 2 mg./kg. of body weight. Test compounds were administered orally in a 1.5% staruh vehicle at various doses once daily on days 0 through 13 post challenge. Control rats were treated in a similar manner, but given only starch vehicle. On the 14th and 21st day post challenge the diameter of the injected paw (primary lesion) was measured by micrometer caliper. The volume of inflamed paws were estimated from these measurements and the results are expressed as percent inhibition of swelling as compared to controls. At the same time, the other inflamed sites, such as ears, paws and tail (secondary lesions) were observed and each rat was graded as to degree of inflammation and swelling present. The grading is based on a scale of 0 to 24, where 0 represents a complete absence of induced arthritic nodules and 24 represents the maximum degree of inflammation. The mean grade for each treated group is calculated and the effects of each compound are expressed as percent inhibition of the control grade. Table III records the results of these tests conducted with benzimidoylacetonitrile, m-fluorobenzimidoylacetonitrile and p-fluorobenzimidoylacetonitrile and known anti-inflammatory agents. The active compounds of the present invention suppress the progression of the arthritis and associated joint deterioration. Of particular interest is the low mortality observed with benzimidoylacetonitrile treated rats relative to either controls or rats treated with standard compounds.

arthritic paw swelling = conditions: Wong et al. 1973; Bobalick et al. 1974; cited from earlier work
Erythema in Guinea Pigs = test: Ultraviolet induced erythema in guinea pigs, topical application; format: in vivo, Albino guinea pigs
Protocol: Albino guinea pigs were depilitated on their flanks, the evening before testing, with a standard mixture of barium sulfide and gum acacia. On the morning of the test at 0 hour they were restrained in a plastic container which allows exposure of 3 circular spots. They were then exposed to ultraviolet irradiation from a "Hanovia" Kromayer lamp, model 10, for 60 seconds. Immediately after exposure to ultraviolet light, the guinea pigs were treated by dissolving the test compound in ethyl alcohol at various concentrations and swabbing the UV exposed areas with the aid of a cottom tipped applicator stick. At one and four hours, the degree of erythema for each of the three sites was assessed according to the following scoring system: 0=no erythema, 0.5=incomplete circle or faint erythema and 1.0=complete circle of distinct erythema. Thus, the maximum score for each animal was 3.0.

[3] = tested on: Carrageenin Induced Edema of the Rat Paw; test: Carrageenin induced edema of the rat paw (acute anti-inflammatory activity); format: in vivo, Royal Hart, Wistar strain rats; conditions: 25 mg./kg. by gavage, 5 hours after drug (4 hours after carrageenin)
Protocol: In determining the acute anti-inflammatory activity of benzimidoylacetonitrile, Royal Hart, Wistar strain rats ranging in weight from 80 to 90 grams were used. The rats were fasted overnight prior to dosing but had free access to water. The compound was administered in aqueous suspension, by gavage, in a volume of 1.7 ml. per 50 grams of rat [corresponds by hydration volume used by Winter et al., Proc. Soc. […] The phlogistic agent used was carrageenin prepared as a sterile 1% suspension in 0.9% aqueous sodium chloride for routine testing. A volume of 0.05 ml. was injected through a 26 gauge needle into the planter tissue of the right hind paw. Measurements were made 5 hours after drug administration (4 hours after carrageenin challenge). Volumes of both the normal and carrageenin inflamed feet were determined. The difference between the two measurements is considered to be the increased edema due to the carrageenin administration.

SMILES: COc1ccc2c(c1)c(CC(=O)O)c(C)n2C(=O)c1ccc(Cl)cc1 [Indomethacin]
- Decrease In Body Temp. [1]: 2.5 °C
- % Inhibition of Control Grade (secondary lesion), Day 14 ([2]; 0.25 mg./kg. oral): 22%
- % Inhibition of Control Grade (secondary lesion), Day 21 ([2]; 0.25 mg./kg. oral): 4%
- % Inhibition of Swelling (primary lesion), Day 14 ([2]; 0.25 mg./kg. oral): 30%
- % Inhibition of Swelling (primary lesion), Day 21 ([2]; 0.25 mg./kg. oral): 4%
- Dead/Treated At 21 Days ([2]; 0.25 mg./kg. oral): 0/9
- Mean Weight Gain, Day 14 ([2]; 0.25 mg./kg. oral): 51 grams
- Mean Weight Gain, Day 21 ([2]; 0.25 mg./kg. oral): 57 grams
- % Inhibition of Control Grade (secondary lesion), Day 14 ([2]; 0.5 mg./kg. oral): 25%
- % Inhibition of Control Grade (secondary lesion), Day 21 ([2]; 0.5 mg./kg. oral): 17%
- % Inhibition of Swelling (primary lesion), Day 14 ([2]; 0.5 mg./kg. oral): 40%
- % Inhibition of Swelling (primary lesion), Day 21 ([2]; 0.5 mg./kg. oral): 20%
- Dead/Treated At 21 Days ([2]; 0.5 mg./kg. oral): 5/54
- Mean Weight Gain, Day 14 ([2]; 0.5 mg./kg. oral): 53 grams
- Mean Weight Gain, Day 21 ([2]; 0.5 mg./kg. oral): 51 grams
- % Inhibition of Control Grade (secondary lesion), Day 14 ([2]; 1 mg./kg. oral): 34%
- % Inhibition of Control Grade (secondary lesion), Day 21 ([2]; 1 mg./kg. oral): 20%
- % Inhibition of Swelling (primary lesion), Day 14 ([2]; 1 mg./kg. oral): 46%
- % Inhibition of Swelling (primary lesion), Day 21 ([2]; 1 mg./kg. oral): 19%
- Dead/Treated At 21 Days ([2]; 1 mg./kg. oral): 9/54
- Mean Weight Gain, Day 14 ([2]; 1 mg./kg. oral): 63 grams
- Mean Weight Gain, Day 21 ([2]; 1 mg./kg. oral): 65 grams
- % Inhibition of Control Grade (secondary lesion), Day 14 ([2]; 2 mg./kg. oral): 38%
- % Inhibition of Control Grade (secondary lesion), Day 21 ([2]; 2 mg./kg. oral): 25%
- % Inhibition of Swelling (primary lesion), Day 14 ([2]; 2 mg./kg. oral): 51%
- % Inhibition of Swelling (primary lesion), Day 21 ([2]; 2 mg./kg. oral): 24%
- Dead/Treated At 21 Days ([2]; 2 mg./kg. oral): 8/57
- Mean Weight Gain, Day 14 ([2]; 2 mg./kg. oral): 68 grams
- Mean Weight Gain, Day 21 ([2]; 2 mg./kg. oral): 68 grams
- arthritic paw swelling (in words) (arthritic paw swelling): inhibit arthritic paw swelling
- joint and bone deterioration (in words) (arthritic paw swelling): prevent joint and bone deterioration
- Erythema Score (Avg.) 1 Hr. (Erythema in Guinea Pigs; 0.25% in ethyl alcohol, maximum score 3.0, control 2.5): 1.8
- Erythema Score (Avg.) 4 Hr. (Erythema in Guinea Pigs; 0.25% in ethyl alcohol, maximum score 3.0, control 3.0): 2.5
- Erythema Score (Avg.) 1 Hr. (Erythema in Guinea Pigs; 0.5% in ethyl alcohol, maximum score 3.0, control 2.5): 1.5
- Erythema Score (Avg.) 4 Hr. (Erythema in Guinea Pigs; 0.5% in ethyl alcohol, maximum score 3.0, control 3.0): 2.4
- Erythema Score (Avg.) 1 Hr. (Erythema in Guinea Pigs; 1% in ethyl alcohol, maximum score 3.0, ethyl alcohol control 2.5): 0.7
- Erythema Score (Avg.) 4 Hr. (Erythema in Guinea Pigs; 1% in ethyl alcohol, maximum score 3.0, ethyl alcohol control 3.0): 2.5
- C/T Edema Ratio (edema of control animals/edema of treated animals) [3]: 2.9
